From patent US12681018B2, “Photoactive fluorescent compounds and use thereof for labeling of proteins” (EIKON THERAPEUTICS, INC., priority 2021, dated 2026)
Converted amounts (≈) assume the structure as drawn. Like-named read-outs stand apart in the source and are kept apart here.

Key:
[1] = Kinetic solubility in PBS at 7.4; assay type: physicochemical; conditions: PBS buffer, aqueous buffer, kinetic from dmso stock, pH 7.4, 500 μM final concentration, 1.5 hours at room temperature, average of three runs, read-out: Ksol
Procedure: 190 μL of buffer solution (PBS, pH 7.4) was added to wells on a 96-well Millipore Solubility filter plate. Then 10 μL of test compound in DMSO (10 mM) were added to give final concentration of 500 μM.
The filter plate was shaken for 1.5 hours at room temperature in the dark and samples were filtered via a vacuum system into a fresh 96-well plate. Samples were diluted to 500 μM (highest concentration) in DMSO and further diluted (1:10) to provide three-point calibration curve. Absorbance was measured using HPLC/UV analysis at 220 nm, 254 nm, and 280 nm.

[2] = biological target: T1, Estrogen Receptor-HaloTag (ER-Halo) fusion (Rhodococcus rhodochrous, UniProt P0A3G2, A155T/A167V/A172T/A224E/C128F/C176G/D78G/E160K/E257K/H272N/K175M/K195N/L47V/L88M/N227D/P291S/S58T/T264A/Y273L/Y87F); assay type: cell-based; conditions: tracks in WT U2OS cells, ratio with PA-JF549 in the numerator, 100 nM, 1 hr
T1 construct: expressed in transfected cells; host or cells: U2OS
Procedure: Using the methods described in Tables 4a and 4b above, labelling specificity of the compound of Examples 1-24 was measured and compared to PA-JF549. U2OS cells wild type or expressing ER-HaloTag fusion were incubated with PA-JF549 or Examples 1-24 for 1 hr. […] Labeling specificity, as measured by the fold reduction in nonspecific labeling of WT cells, was calculated by number of tracks measured in WT cells for Examples 1-24 compared to the number of tracks in WT cells for PA-JF549, expressed as the ratio with PA-JF549 in the numerator.

[3] = test system: histone H2B-HaloTag fusion; test: Halo-protein specificity (Specificity Factor), single-molecule imaging in U2OS cells; assay type: cell-based; conditions: ratio of slope (spots vs dye concentration, 1-200 nM, 45 minutes) relative to PA-JF549
Procedure: The following day the cells were incubated with PA-JF549 or Examples 1-4 at a range of concentrations between 200 nM and 1 nM for 45 minutes. […] Samples were imaged on a Nikon Ti2 microscope with fiber-optic coupled illumination source. […] Images were collected every 10 msec for 5 seconds per field of view and pulses of ascending intensity 405 nm light (between 0 and 12 mW at the coverslip) were used to photoactivate dye molecules.
For each dye compound, a linear regression was used to determine the relationship between the concentration of dye compound and the number of fluorescence spots detected on the microscope, where in WT cells the ideal dye would have no correlation between compound concentration and number of slots measured. The Specificity Factor was calculated as the ratio of the slope of the compound in question relative to the slope calculated for PA-JF549 and is shown in Table 3 below.

T1 sequence (P03372 whole entry, the tested form may be a part): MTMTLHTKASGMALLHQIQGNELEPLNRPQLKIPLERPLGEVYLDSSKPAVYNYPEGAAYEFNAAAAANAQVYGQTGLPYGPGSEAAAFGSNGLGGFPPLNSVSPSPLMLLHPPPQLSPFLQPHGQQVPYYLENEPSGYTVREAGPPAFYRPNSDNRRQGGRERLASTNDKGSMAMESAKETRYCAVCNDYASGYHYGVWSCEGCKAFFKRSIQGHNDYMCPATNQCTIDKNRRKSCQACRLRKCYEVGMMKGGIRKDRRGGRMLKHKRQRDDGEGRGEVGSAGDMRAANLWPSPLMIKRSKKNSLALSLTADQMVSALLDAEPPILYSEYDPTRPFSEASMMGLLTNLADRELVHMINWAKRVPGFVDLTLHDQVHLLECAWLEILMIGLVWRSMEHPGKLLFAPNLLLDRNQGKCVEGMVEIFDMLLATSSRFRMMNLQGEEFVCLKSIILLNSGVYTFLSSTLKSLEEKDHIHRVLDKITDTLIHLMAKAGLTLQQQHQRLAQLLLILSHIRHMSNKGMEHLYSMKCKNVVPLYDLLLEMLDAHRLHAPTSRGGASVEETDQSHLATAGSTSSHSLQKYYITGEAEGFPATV
T1 sequence (P0A3G2 other isoform, or with tags, fused parts or gaps with the stated changes): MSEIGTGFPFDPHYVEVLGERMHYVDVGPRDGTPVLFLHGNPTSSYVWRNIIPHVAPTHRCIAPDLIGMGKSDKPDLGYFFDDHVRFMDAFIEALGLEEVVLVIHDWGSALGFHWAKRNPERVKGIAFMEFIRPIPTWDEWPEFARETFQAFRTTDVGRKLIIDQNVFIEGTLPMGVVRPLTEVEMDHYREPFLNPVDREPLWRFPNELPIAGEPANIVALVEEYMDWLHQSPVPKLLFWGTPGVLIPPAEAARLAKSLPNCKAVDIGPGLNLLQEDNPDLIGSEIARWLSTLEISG

Structure (SMILES) | solubility kinetic at 1.5 h [1] [µM] | Fold reduction in nonspecific labeling ([2]; Table 4a) | Fold reduction in nonspecific labeling ([2]; Table 4b) | Specificity Factor [3]
COC(=O)C1CN(c2ccc3c(c2)Oc2cc(N4CC(C(=O)OC)C4)ccc2C32C(=[N+]=[N-])C(=O)c3ccc(C(=O)NCCOCCOCCCCCCCl)cc32)C1 [Example 1, dimethyl 1,1′-(6-((2-(2-((6-chlorohexyl)oxy)ethoxy)ethyl)carbamoyl)-2-diazo-3-oxo-2,3-dihydrospiro[indene-1,9′-xanthene]-3′,6′-diyl)bis(azetidine-3-carboxylate)] | 58.4 (≈ 46.7 µg/mL) | >10 | >10 | 2.66
[N-]=[N+]=C1C(=O)c2ccc(C(=O)NCCOCCOCCCCCCCl)cc2C12c1ccc(N3CC(C(=O)O)C3)cc1Oc1cc(N3CC(C(=O)O)C3)ccc12 [Example 2, 1,1′-(6-((2-(2-((6-chlorohexyl)oxy)ethoxy)ethyl)carbamoyl)-2-diazo-3-oxo-2,3-dihydrospiro[indene-1,9′-xanthene]-3′,6′-diyl)bis(azetidine-3-carboxylic acid)] | 481 (≈ 371 µg/mL) | >10 | >10 | <1
COC[C@H]1CCN1c1ccc2c(c1)Oc1cc(N3CC[C@@H]3COC)ccc1C21C(=[N+]=[N-])C(=O)c2ccc(C(=O)NCCOCCOCCCCCCCl)cc21 [Example 3, N-(2-(2-((6-chlorohexyl)oxy)ethoxy)ethyl)-2-diazo-3′,6′-bis((R)-2-(methoxymethyl)azetidin-1-yl)-3-oxo-2,3-dihydrospiro[indene-1,9′-xanthene]-6-carboxamide] | 39.5 (≈ 30.5 µg/mL) | 1-5 | 1-5 | 2.07
CN(C)C(=O)C1CN(c2ccc3c(c2)Oc2cc(N4CC(C(=O)N(C)C)C4)ccc2C32C(=[N+]=[N-])C(=O)c3ccc(C(=O)NCCOCCOCCCCCCCl)cc32)C1 [Example 4, 1,1′-(6-((2-(2-((6-chlorohexyl)oxy)ethoxy)ethyl)carbamoyl)-2-diazo-3-oxo-2,3-dihydrospiro[indene-1,9′-xanthene]-3′,6′-diyl)bis(N,N-dimethylazetidine-3-carboxamide)] | 3.69 (≈ 3.05 µg/mL) | >10 | >10 | 23.8
